Reference: publication PMC8480901 (PLoS ONE, 2021)
Where “and” joins values, the source holds several entries; their conditions need not be identical. Equal values may be shown once.

Experiments:
[1] = cited from earlier work
[2] = system: IL-8–activated human neutrophils; test: Chemotaxis of IL-8–activated human neutrophils (transwell, CellTiter Glo); type: cell-based; conditions: for IL-8–induced chemotaxis of human neutrophils: 0.03 to 30 μM; for Neutrophilic chemotaxis, RLU, Mean / Neutrophilic chemotaxis: % reduction / Neutrophilic chemotaxis, RLU, single replicates: IL-8
Description: Buffy coat (blood sample fraction comprising white blood cells and platelets) from whole blood was obtained from a healthy adult volunteer at the Croatian Institute of Transfusion Medicine (CITM; Zagreb, Croatia). The CITM ethics committee approved the blood collection process, and the volunteer provided written informed consent prior to blood collection. Neutrophils were isolated from the buffy coat, an aliquot of which was used for cell counting via hematologic analyzer (X500i; Sysmex). […] The diluted buffy coat was drawn into sterile 50-mL syringes and incubated for 30 minutes at RT. Following incubation, the upper layer of leukocyte-rich plasma (35 mL) was decanted into a new sterile 50-mL conical centrifuge tube, carefully layered onto 15 mL of Lymphoprep (Axis-Shield Diagnostics, Ltd., Dundee, UK) and centrifuged at 400×g (brake turned off) for 35 minutes at RT. The supernatant and mononuclear ring were discarded, and the pellet was resuspended in 10 mL of cold sterile MilliQ water. […] Resuspended neutrophils were counted via Sysmex X500i hematologic analyzer.
All test compounds were reconstituted in DMSO (Sigma-Aldrich Chemie GmbH) to 100-mM stock concentrations, taking into consideration and correcting for salt and purity. A 30-mM stock solution of reference compound Sch527123 (MedChemExpress, Monmouth Junction, NJ, USA) was diluted to 10 mM with DMSO.
DMSO was used as vehicle. […] The reference compound was tested at concentrations of 0.003, 0.01, 0.03, 0.1, 0.3, 1, 3, and 10 μM. All compounds were tested in triplicate, and the final DMSO concentration was 0.1% per well.
Test and reference compound working solutions were then added (20 μL/well) for a 10-fold dilution to final testing concentrations. Compounds and cells were mixed by gentle pipetting, and the plate was pre-incubated for 30 minutes at RT with gentle mixing by pipetting.
Negative control wells received 180 μL of migration medium alone. To all wells, 20 μL of compound working solutions or DMSO vehicle was added. Once pre-incubation of cells with compounds was complete, the transwell inserts were carefully placed on the receiver plate, with caution to avoid air bubble formation, which could prevent cell migration. To the upper wells, 75 μL of cell suspension (375,000 cells/well) was added, taking care not to tear the membrane with pipette tips.
After incubation, the number of cells that migrated to the lower wells was quantified by removing the Transwell insert and adding 200 μL of CellTiter Glo reagent (CellTiter-Glo Luminescent Cell Viability Assay, Promega, Madison, WI, USA) to each lower well to quantify the amount of adenosine triphosphate (ATP) present, signaling the presence of metabolically active cells. The plate was incubated for 10 minutes in the dark at RT, followed by transferring 150 μL of solution into wells of a white 96-well plate (Lumitrac 200; Greiner Bio-One International GmbH, Kremsmunster, Austria).
For the chemotaxis and cytotoxicity evaluations, average relative light unit values were calculated from all untreated vehicle samples and, for each sample, percentage of vehicle value was calculated. The tested compound was considered cytotoxic if reduction from untreated vehicle was ≥20%.

| Compound | IL-8–induced chemotaxis of human neutrophils [2] | Neutrophilic chemotaxis, RLU, Mean ([2]; 0.03 µM) [RLU] | Neutrophilic chemotaxis: % reduction ([2]; 0.03 µM) [%] | Neutrophilic chemotaxis, RLU, Mean ([2]; 0.1 µM) [RLU] | Neutrophilic chemotaxis: % reduction ([2]; 0.1 µM) [%] | Neutrophilic chemotaxis, RLU, Mean ([2]; 0.3 µM) [RLU] | Neutrophilic chemotaxis, RLU, Mean ([2]; 1 µM) [RLU] | Neutrophilic chemotaxis: % reduction ([2]; 1 µM) [%] | Neutrophilic chemotaxis, RLU, Mean ([2]; 3 µM) [RLU] | Neutrophilic chemotaxis: % reduction ([2]; 3 µM) [%] | Neutrophilic chemotaxis, RLU, Mean ([2]; 10 µM) [RLU] | Neutrophilic chemotaxis: % reduction ([2]; 10 µM) [%] | Neutrophilic chemotaxis, RLU, Mean ([2]; 30 µM) [RLU] | Neutrophilic chemotaxis: % reduction ([2]; 30 µM) [%] | Neutrophilic chemotaxis, RLU, Mean ([2]; 100 µM) [RLU] | Neutrophilic chemotaxis: % reduction ([2]; 100 µM) [%] | further results |
| --- | --- | --- | --- | --- | --- | --- | --- | --- | --- | --- | --- | --- | --- | --- | --- | --- | --- |
| CC[C@H]1OC(=O)[C@H](C)[C@@H](O[C@H]2C[C@@](C)(OC)[C@@H](O)[C@H](C)O2)[C@H](C)[C@@H](O[C@@H]2O[C@H](C)C[C@H](N(C)C)[C@H]2O)[C@](C)(O)C[C@@H](C)CN(C)[C@H](C)[C@@H](O)[C@]1(C)O [Azithromycin] | no effect | 121773 | 10 | 122140 | 9 | 131533 | 117320 | 13 | 121787 | 9.51 | 120227 | 11 | 136440 | -3 | 142040 | -8 | increase in AUC, first to fifth daily dose ([1]; 500 mg IV daily): 61%; increase in maximum observed plasma concentration, first to fifth daily dose ([1]; 500 mg IV daily): 8%; plasma exposure (AUC) ([1]; 500-mg IV 3-hour infusion, healthy volunteers): 5000 ng·h/mL; Neutrophilic chemotaxis, RLU, single replicates ([2]; 0.03 µM, listed as Azi): 113920 RLU and 126240 RLU; Neutrophilic chemotaxis, RLU, single replicates ([2]; 0.1 µM, listed as Azi): 121960 RLU and 122320 RLU; Neutrophilic chemotaxis, RLU, single replicates ([2]; 0.3 µM, listed as Azi): 126760 RLU and 132240 RLU and 135600 RLU; Neutrophilic chemotaxis, RLU, single replicates ([2]; 1 µM, listed as Azi): 120320 RLU and 118720 RLU and 112920 RLU; Neutrophilic chemotaxis, RLU, single replicates ([2]; 3 µM, listed as Azi): 127280 RLU and 119280 RLU and 118800 RLU; Neutrophilic chemotaxis, RLU, single replicates ([2]; 10 µM, listed as Azi): 119960 RLU and 123240 RLU and 117480 RLU; Neutrophilic chemotaxis, RLU, single replicates ([2]; 30 µM, listed as Azi): 143280 RLU and 148320 RLU and 117720 RLU; Neutrophilic chemotaxis, RLU, single replicates ([2]; 100 µM, listed as Azi): 140160 RLU and 151960 RLU and 134000 RLU |
| C=C[C@]1(C)C[C@@H](OC(=O)CS[C@@H]2CC[C@@H](N)C[C@H]2O)[C@]2(C)[C@H](C)CC[C@]3(CCC(=O)[C@H]32)[C@@H](C)[C@@H]1O [Lefamulin] | no effect | 133060 | -0.0452 | 130347 | 2.26 | 132827 | 128693 | 3.66 | 129147 | 3.27 | 129213 | 3.22 | 118747 | 12 | 73307 | 51 | Neutrophilic chemotaxis, RLU, single replicates ([2]; 0.03 µM, listed as Lef): 133000 RLU and 133120 RLU; Neutrophilic chemotaxis, RLU, single replicates ([2]; 0.1 µM, listed as Lef): 131200 RLU and 127720 RLU and 132120 RLU; Neutrophilic chemotaxis: % reduction ([2]; 0.3 µM): 0.153%; Neutrophilic chemotaxis, RLU, single replicates ([2]; 0.3 µM, listed as Lef): 128480 RLU and 128040 RLU and 141960 RLU; Neutrophilic chemotaxis, RLU, single replicates ([2]; 1 µM, listed as Lef): 129760 RLU and 127360 RLU and 128960 RLU; Neutrophilic chemotaxis, RLU, single replicates ([2]; 3 µM, listed as Lef): 127920 RLU and 125520 RLU and 134000 RLU; Neutrophilic chemotaxis, RLU, single replicates ([2]; 10 µM, listed as Lef): 122760 RLU and 130480 RLU and 134400 RLU; Neutrophilic chemotaxis, RLU, single replicates ([2]; 30 µM, listed as Lef): 115000 RLU and 125400 RLU and 115840 RLU; Neutrophilic chemotaxis, RLU, single replicates ([2]; 100 µM, listed as Lef): 81720 RLU and 76640 RLU and 61560 RLU |
